Data as given in US20240139210A1, “TREATMENT OF NF-KB-MEDIATED DISEASE” (ReveraGen BioPharma, Inc., priority 2020, published 2024).

Assays:
participants with DMD [1] = assay: VBP15-LTE Month 24 PODCI and skeletal maturation by wrist x-ray; assay type: in vivo, human; conditions: for Bone Age difference to Chronologic Age, mean (SD): LTE Month 24, wrist x-ray
Text: In addition, 39/41 LTE participants had wrist x-ray at Month 24; the mean bone age to chronologic age difference was −1.1 (p<0.001, CI −1.5, −0.7), indicating possible skeletal maturation delay (Table 7).
PODCI is the Pediatrics Outcomes Data Collection Instrument (musculoskeletal disorders). The PODCI is a disease-specific questionnaire developed by the American Academy of Orthopedic Surgeons to measure general health and problems related to bone and muscle conditions in children. A significant increase in mean PODCI upper extremity and physical function standardized score was observed from LTE baseline to Month 24 (7.95±12.54, CI 1.003, 14.897, p=0.0278, n=15) for the combined 2.0 and 6.0 mg/kg/day initial dose group. At the same time, a non-significant decrease in mean PODCI transfer and basic mobility standardized score was observed (−4.38±22.68, CI −16.471, 7.703, p=0.451, n=16) (Table 7).

participants with DMD [2] = assay: VBP15-003/VBP15-LTE open-label trials, motor outcomes over 18 months; assay type: in vivo, human; conditions: for TTCLIMB velocity, LS mean difference (SE), ANCOVA / TTSTAND velocity, LS mean difference (SE), ANCOVA / TTRW velocity, LS mean difference (SE), ANCOVA: vamorolone 18 months vs corticosteroid-naïve DNHS
Text: Assessments of efficacy were motor outcomes (primary outcome: time to stand from supine [TTSTAND]; secondary outcomes: time to run/walk 10 meters [TTRW], time to climb four stairs [TTCLIMB], distance covered in 6-minute walk test [6MWT], and the North Star Ambulatory Assessment [NSAA]). 6MWT and NSAA were not assessed in most CINRG DNHS participants and were not compared to vamorolone-treated participants. According to standard operating procedures, clinical evaluators were trained to harmonize the CINRG vamorolone, CINRG DNHS, and CINRG prednisone studies. Reliability of these outcomes (percent coefficient of variation) has been reported for the VBP15-002/VBP15-003 studies. Assessments were done at baseline (VBP15-002 entry), 24 weeks (VBP15-003 last visit), and 18 months (VBP15-LTE midpoint assessment at 12 months).
Only participants completing VBP15-002 and VBP15-003 were eligible to enroll in VBP15-LTE. Participants received vamorolone at 1 of 4 dose levels (0.25, 0.75, 2.0, or 6.0 mg/kg/day) and at the same dose level in both the 4-week VBP15-002 trial and the 24-week VBP15-003 trial. If participants, their families, and their physicians wished to continue vamorolone treatment upon exiting the VBP15-003 trial, they were offered participation in the 24-month long-term extension (VBP15-LTE). The last visit of the VBP15-003 trial was commensurate with the first visit of the VBP15-LTE trial. In all studies, study medication was provided as 4% flavored liquid suspension and was dosed according to body weight and given once daily in the morning with food.
Vamorolone-treated participants were initially enrolled into VBP15-002 and VBP15-003 in 4 dose groups (0.25, 0.75, 2.0, and 6.0 mg/kg/day; groups A-D). Upon entering VBP15-LTE, vamorolone group A participants had 2 or 3 sequential dose escalations and were treated with 2.0 or 6.0 mg/kg/day for the last 3-9 months of the 18 months; group B participants had 1 or 2 dose escalations and were treated with 2.0 or 6.0 mg/kg/day for the last 9-11 months. Groups C and D were treated for 18 months at 2.0 or 6.0 mg/kg/day (S1 Fig).
The current study is the first to evaluate the longer-term tolerability, efficacy, and safety of vamorolone in DMD. […] Given the variable timing of dose escalations, it was prespecified that initial analyses of drug-related efficacy and safety would be limited to those participants who had 18 months of treatment with 2.0 mg/kg/day vamorolone or more (dose group C+dose group D; n=23). Outcomes for these participants were compared to a group-matched cohort from the CINRG DNHS over 18 months (corticosteroid-naïve, n=19; corticosteroid-treated, n=68). Participants were matched for age and treatment period (±1 month), matching criteria were prespecified in the statistical analysis plan. Two independent statisticians carried out the matching.
Statistical analyses were done on paired longitudinal outcome data using an analysis of covariance (ANCOVA) approach with change from baseline (VBP15-002) to month 18 (midpoint of VBP15-LTE). Baseline response and age were included as covariates. For the vamorolone-treated participants, age was calculated as (date of informed consent minus birthdate)/365.25. For the DNHS participants, age was calculated as (date of baseline visit used minus birthdate)/365.25. The baseline visit for a DNHS participant was the first visit. […] Timed function tests were analyzed as velocity scores to limit the impact of participants who could not perform the test (velocity=0). Velocity measures are variance-stabilizing transformations, suppressing extreme raw outliers from raw values in seconds; these help with distributional assumptions of the statistical models/tests used. Raw data (seconds) are also reported. Velocity scores for TTSTAND (event/second), TTRW (meters/second), and TTCLIMB (event/second) were inputted as 0 at the first response missing due to inability to perform the test. All other data were observed values only, without imputation. […]

[3] = LTE baseline to Month 24, combined 2.0 and 6.0 mg/kg/day initial dose group
[4] = assigned to high dose (2.0 and 6.0 mg/kg/day) at start of the study
[5] = vamorolone 18 months vs corticosteroid-naïve participants

C[C@@H]1C[C@H]2[C@@H]3CCC4=CC(=O)C=C[C@]4(C)C3=CC[C@]2(C)[C@@]1(O)C(=O)CO [Vamorolone, 17α,21-dihydroxy-16α-methylpregna-1,4,9(11)-triene-3,20-dione]
Bone Age difference to Chronologic Age, mean (SD) (participants with DMD [1]; n = 39): −1.1 (1.2), yr | Bone Age difference to Chronologic Age, mean (SD) (participants with DMD [1]; n = 39, listed as vamorolone): −1.1 yr | PODCI transfer and basic mobility, change from baseline (SD) (participants with DMD [1]; [3]): −4.38±22.68 | PODCI upper extremity and physical function, change from baseline (SD) (participants with DMD [1]; [3]): 7.95±12.54 | PODCI transfer and basic mobility, 24 months from LTE baseline, mean (SD) (participants with DMD [1]; [4]): 81.4 (17.5), n = 18 | PODCI transfer and basic mobility, LTE baseline, mean (SD) (participants with DMD [1]; [4]): 86.5 (9.2), n = 19 | PODCI upper extremity and physical function, 24 months from LTE baseline, mean (SD) (participants with DMD [1]; [4]): 82.3 (10.9), n = 18 | PODCI upper extremity and physical function, LTE baseline, mean (SD) (participants with DMD [1]; [4]): 75.3 (15.1), n = 18 | LTE Month 24 Bone Age by wrist x-ray, mean (SD) (participants with DMD [1]; n = 39, chronologic age 8.0 (1.0) yr): 6.8 (1.4), n = 39 yr | TTCLIMB velocity, LS mean difference (SE), ANCOVA (participants with DMD [2]): 0.059 (0.026) event/second | TTSTAND velocity, LS mean difference (SE), ANCOVA (participants with DMD [2]): 0.042 (0.024) event/second | TTRW velocity, LS mean difference (SE), ANCOVA (participants with DMD [2]; listed as Valmorolone): 0.286 (0.09) meters/second | TTCLIMB velocity, LS mean difference (SE), ANCOVA (participants with DMD [2]; listed as vamorolone): 0.059 event/second | TTRW velocity, LS mean difference (SE), ANCOVA (participants with DMD [2]; listed as vamorolone): 0.286 meters/second | TTSTAND velocity, LS mean difference (SE), ANCOVA (participants with DMD [2]; listed as vamorolone): 0.042 event/second | TTCLIMB, LS mean difference, ANCOVA (participants with DMD [2]; [5]): -0.34 s | TTRW, LS mean difference, ANCOVA (participants with DMD [2]; [5]): -0.84 s | TTSTAND, LS mean difference, ANCOVA (participants with DMD [2]; [5]): -1.15 s
